Laboratory results: publication PMC9026148, “Pre-Clinical Study Evaluating Novel Protein Phosphatase 2A Activators as Therapeutics for Neuroblastoma” (Cancers, 2022)
Like-named read-outs stand apart in the source and are kept apart here.

Key:
[1] = Microsome (oxidative metabolism) stability, rat; type: in vitro ADME; settings: for half-life at 1 µM: liver microsomes 0.5 mg/mL, NADPH, read-out: T1/2 Rat; for microsomal CLint at 1 µM: liver microsomes, read-out: CL Rat
Procedure: Microsome stability assays were performed by Bioduro, LLC. Briefly, 2.5 µL (100 µM in DMSO) of test compounds are added to 197.5 µL of human, rat, or mouse microsome preparation (0.633 mg/mL in phosphate buffer) and mixed gently at 37 °C. The reaction is started by adding 50 µL NADPH (5 mM in phosphate buffer) and mixing at 37 °C. The final reaction microsome concentration is 0.5 mg/mL. The reaction is sampled at 0, 5, 15, 30, and 60 min. Reaction aliquots are quenched by adding to 1:1 methanol–acetonitrile containing analytical standards and analyzed by liquid chromatography with tandem mass spectrometry (LC-MS/MS).

[2] = tested on: SK-N-BE(2) flank tumors; assay: SK-N-BE(2) flank tumor growth in athymic nude mice; type: in vivo, mouse; settings: 50 mg/kg bid po
Procedure: (§1) SK-N-AS (1.8 × 10^6) or SK-N-BE(2) (1.5 × 10^6) cells in 25% Matrigel™ (BD Biosciences) were injected into the right flank of 6-week-old female athymic nude mice (Fredricks, Charles River, Wilmington, MA, USA) (n = 5 for SK-N-AS vehicle treated, n = 7 for SK-N-AS 792 or 1154 treatment and all SK-N-BE(2) experimental groups). Calipers were used to measure tumors three times per week, and volumes were calculated by the formula (width^2 × length)/2, where width was the smaller measurement. After tumors reached a volume of 100 mm^3, animals were randomized to three groups to receive 100 µL of either vehicle (N,N-dimethylacetamide (DMA, 271012, Sigma Aldrich) and Kolliphor® HS 15 (Solutol, 42996, Sigma Aldrich)), 792 (50 mg/kg in DMA and Solutol), or 1154 (50 mg/kg in DMA and Solutol) twice daily by oral gavage; dosing based on previously published in vivo cancer models. Animals were weighed weekly and were humanely euthanized in their home cages with CO2 and cervical dislocation when control tumors reached 2000 mm^3; either 9 (SK-N-AS tumors) or 19 days (SK-N-BE(2) tumors) following treatment initiation, or when IACUC parameters were met. Power analysis was completed prior to the study.

[3] = tested on: SK-N-AS flank tumors; assay: SK-N-AS flank tumor growth in athymic nude mice; type: in vivo, mouse; settings: 50 mg/kg bid po; for Percent necrosis in SK-N-AS tumors: H&E, blinded pathologist, vehicle 8.3 ± 3.3%; for tumor volume: SK-N-AS flank tumors, after 9 days, vehicle 2104 ± 53
Procedure: as §1

[4] = tested on: SK-N-AS cells; assay: alamarBlue viability, SK-N-AS; type: cell-based, human; settings: 24 h
Procedure: (§2) CellTiter 96® Aqueous One Solution Cell Proliferation assay (Promega, Madison, WI, USA) was used to examine proliferation, and alamarBlue® assay (Thermo Fisher Scientific, Inc.) was used to evaluate viability. Cells, concentrations ranging from 5 × 10^3 to 1.5 × 10^4, depending on cell type due to wide variation in growth characteristics between established cell lines and PDX cells, were plated in 96-well plates and treated with increasing doses of 792 or 1154 for 24 h. CellTiter 96® or alamarBlue® dye (10 µL) was added for proliferation and viability assays, respectively. A microplate reader (Epoch Microplate Spectrophotometer, BioTek Instruments, Winooski, VT) measured absorbance at 490 nm for CellTiter 96® and at 570 nm for alamarBlue®, using 600 nm as a reference. […] Experiments were completed with at least three biologic replicates, and data reported as fold change ± SEM.
Supplemental Figure S3: Novel PP2A activating compounds decrease d neuroblastoma proliferation and viability. SK-N-AS and SK-N-BE(2) cells (1.5 x 104) were plated in 96-well plates and treated with increasing doses of nine PP2A activating compounds for 24 […]
novel PP2A activators tested in (A) SK-N-AS and (B) SK-N-BE(2) cells. Similarly, PP2A […]
(D) SK-N-BE(2) cells. Data reported as mean fold change ± SEM, and experiments were repeated with at least three biologic replicates. […]

[5] = tested on: WAC2 cells; assay: Cell cycle analysis by flow cytometry (PI), WAC2; type: cell-based, human; settings: WAC2, 15 μM, 24 h; for percentage of cells in the S phase: untreated 38.2 ± 1.0; for percentage of cells in G1: untreated 44.7 ± 1.6
Procedure: To evaluate cell cycle, cells (1 × 10^6) were plated and maintained in respective media with reduced FBS (4%) for cell synchronization. […] Cells were washed with phosphate-buffered saline (PBS) and fixed at 4 °C for 30 min with 100% ethanol. Following a second PBS wash, cells were stained with propidium iodide (PI, Invitrogen, Waltham, MA, USA), RNAse A (0.1 mg/mL, Qiagen, Germantown, MD, USA), and 0.1% TritonX (Active Motif, Carlsbad, CA, USA), and FACSCalibur^TM Flow Cytometer (BD Biosciences, Franklin Lakes, NJ, USA) was used for examination. FlowJo software (FlowJo, LLC, Ashland, OR, USA) was used for data analysis. Data reported as mean percentage cells in phase ± SEM.

[6] = tested on: SK-N-AS, SK-N-BE(2), SH-EP, WAC2, COA6, COA129 cells; assay: alamarBlue viability, long-term cell lines and PDX cells; type: cell-based, human; settings: increasing doses, 24 h; all cell lines
Procedure: as §2
Supplemental Figure S5: Treatment of neuroblastoma cell lines with 792 or 1154 resulted in decreased viability. Neuroblastoma cells ( 1.5 x 104 for AS, BE, SH-EP, WAC, COA6; 3 x 105 for COA129) were plated in 96-well plates and treated with increasing doses of 792 or […]
viability following increasing doses of either 792 (A) or 1154 (B). Similarly, increasing […]
PDXs. Data reported as mean fold change ± SEM, and experiments were repeated with at least three biologic replicates. […]

[7] = target: T1, CYP-3A4 (Homo sapiens, UniProt P08684); assay: Time-dependent CYP-3A4 inhibition (midazolam turnover, human liver microsomes); type: in vitro ADME; settings: for IC50: 50% inhibition of midazolam turnover
T1 construct: tissue Bioduro, LLC (contract lab that ran the assay); host or cells: human liver microsomes
Procedure: Time-dependent CYP-3A4 inhibition assays were performed by Bioduro, LLC. In brief, the test compound is pre-incubated with human liver microsomes (0.25 mg/mL in reaction) and NADPH (0.5 mM in reaction) for 5, 30, and 60 min to allow metabolite formation. Midazolam, a known standard substrate of CYP-3A4, is added to give 2.5 µM reaction concentration, and consumption (microsome stability) of midazolam is assayed as above.

[8] = tested on: SK-N-AS, SK-N-BE(2), SH-EP, WAC2, COA6, COA129 cells; assay: CellTiter 96 proliferation, long-term cell lines and PDX cells; type: cell-based, human; settings: increasing doses, 24 h
Procedure: as §2

[9] = 5 min pre-incubation, read-out: IC50 at Pre-incubation time 5 min
[10] = 30 min pre-incubation, read-out: IC50 at Pre-incubation time 30 min
[11] = 60 min pre-incubation, read-out: IC50 at Pre-incubation time 60 min

T1 sequence (P08684 whole entry): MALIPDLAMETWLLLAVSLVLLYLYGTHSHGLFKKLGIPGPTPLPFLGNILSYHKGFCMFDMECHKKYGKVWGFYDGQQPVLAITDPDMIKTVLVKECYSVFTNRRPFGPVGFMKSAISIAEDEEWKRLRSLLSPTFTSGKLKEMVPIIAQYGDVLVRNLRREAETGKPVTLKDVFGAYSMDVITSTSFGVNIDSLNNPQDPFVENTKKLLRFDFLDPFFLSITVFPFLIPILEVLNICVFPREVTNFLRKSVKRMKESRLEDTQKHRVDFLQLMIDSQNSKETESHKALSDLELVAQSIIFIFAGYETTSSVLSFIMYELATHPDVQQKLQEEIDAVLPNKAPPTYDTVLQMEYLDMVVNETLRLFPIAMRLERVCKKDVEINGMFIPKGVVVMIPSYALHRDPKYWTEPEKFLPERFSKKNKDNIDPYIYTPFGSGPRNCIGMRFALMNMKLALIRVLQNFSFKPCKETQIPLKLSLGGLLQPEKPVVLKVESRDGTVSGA

## O=S(=O)(NC1CCCC(N2c3ccccc3CCc3ccccc32)C1O)c1ccc(OC(F)(F)F)cc1 (centres unmarked) [DBK-1154]
[1]
  half-life at 1 µM: 3 min
  microsomal CLint at 1 µM: 521 µL/min/mg
[2]; by day 19, vehicle 2362 ± 53
  tumor volume: 1628 ± 362 mm^3
[3]
  Percent necrosis in SK-N-AS tumors: 23.3 ± 6.7%
  tumor volume: 2124 ± 275 mm^3
[4]
  LD50: 13.9 µM
[5]
  Mean % G1 (± SEM): 49.6 (± 2.4) %
  Mean % G2 (± SEM): 19.0 (± 1.5) %
  Mean % S (± SEM): 28.4 (± 1.6) %
  percentage of cells in the S phase: 28.4 ± 1.6%
  percentage of cells in G1: 49.6 ± 2.4%
[6]
  viability: significantly decreased viability
[7]; [9]
  IC50: 42 µM
[7]; [10]
  IC50: 27 µM
[7]; [11]
  IC50: 18 µM
[7]; human, human liver microsomes, probe midazolam (2.5 µM), ratio IC50 5 min / 60 min pre-incubation
  IC50 shift: 2.4
[8]
  proliferation: significantly decreased proliferation

## O=S(=O)(N[C@H]1COC[C@@H](n2c3ccc(Cl)cc3c3cc(Cl)ccc32)[C@@H]1O)c1ccc(OC(F)(F)F)cc1 [ATUX-792]
[1]
  half-life at 1 µM: > 256 min
  microsomal CLint at 1 µM: < 5 µL/min/mg
[2]; after 17 days, vehicle 2362 ± 53
  tumor volume: 1383 ± 243 mm^3
[3]
  Percent necrosis in SK-N-AS tumors: 33.3 ± 8.8%
  tumor volume: 1309 ± 169 mm^3
[3]; SK-N-AS tumors, H&E staining
  ganglion cells in tumors (tumor cell differentiation): ganglion cells present
[4]
  LD50: 12.2 µM
[5]
  Mean % G1 (± SEM): 54.5 (± 2.3) %
  Mean % G2 (± SEM): 14.3 (± 1.1) %
  Mean % S (± SEM): 25.4 (± 2.5) %
  percentage of cells in the S phase: 25.4 ± 2.5%
  percentage of cells in G1: 54.5 ± 2.3%
[6]
  viability: significantly decreased viability
[7]; [9]
  IC50: > 50 µM
[7]; [10]
  IC50: > 50 µM
[7]; [11]
  IC50: > 50 µM
[7]; time-dependent inhibition assay
  CYP-3A4 inhibition: no CYP-3A4 inhibition
[8]
  proliferation: significantly decreased proliferation
